# Like-named read-outs stand apart in the source and are kept apart here.
# Legend:
# [1] = biological target: T1, mTOR (h) (Homo sapiens, UniProt P42345); assay: mTOR (h) kinase assay (33P-ATP, filter); assay type: biochemical
# T1 construct: purchased Millipore UK Ltd (assay service)
# Procedure: mTOR (h) is incubated with 50 mM HEPES pH 7.5, 1 mM EDTA, 0.01% Tween 20, 2 mg/mL substrate, 3 mM Manganese Chloride and [γ-^33P-ATP] (specific activity approx. 500 cpm/pmol, concentration as required). The reaction is initiated by the addition of the MnATP mix. After incubation for 40 minutes at room temperature, the reaction is stopped by the addition of 3% phosphoric acid solution. 10 μL of the reaction is then spotted onto a P30 filtermat and washed three times for 5 minutes in 75 mM phosphoric acid and once in methanol prior to drying and scintillation counting.
# (§1) The kinase assays described herein were performed at Millipore UK Ltd, Dundee Technology Park, Dundee DD2 1SW, UK.
# [2] = Compound stability in human liver microsomes; assay type: in vitro ADME; conditions: pH 7.4; for half-life at 5 μM: human liver microsomes 0.5 mg protein/mL, compound 5 μM, NADPH 1.0 mM, 37° C., read-out: Human T1/2; for CLint scaled at 5 μM: human liver microsomes, in vivo CLint extrapolated
# Procedure: (§2) Human or rat liver microsomes incubations were conducted in duplicate in polypropylene tubes. The typical incubation mixtures consisted of human or rat liver microsomes (0.5 mg protein/mL), compounds of interest (5 μM) and NADPH (1.0 mM) in a total volume of 200 μL potassium phosphate buffer (PBS, 100 mM, pH=7.4). Compounds were dissolved in DMSO and diluted with PBS such that the final concentration of DMSO was 0.05%. The enzymatic reactions were commenced with the addition of […] after a 3-min preincubation and incubated in a water bath open to the air at 37° C. Reactions were terminated at various time points (0, 5, 10, 15, 30, 60 min) by adding equal volume of ice-cold acetonitrile. The samples were stored at −80° C. until LC/MS/MS assays.
# (§3) The concentrations of compounds in the incubation mixtures of human or rat liver microsomes were determined by a LC/MS/MS method. The ranges of the linearity in the concentration range were determined for each tested compounds.
# (§4) A parallel incubation was performed using denatured microsomes as the negative control, and reactions were terminated at various time points (0, 15, 60 min) after incubation at 37° C.
# (§5) Dextromethorphan (70 μM) was selected as the positive control, and reactions were terminated at various time points (0, 5, 10, 15, 30, 60 min) after incubation at 37° C. Both positive and negative control samples were included in each assay to ensure the integrity of the microsomal incubation system.
# (§6) The concentrations of compounds in human or rat liver microsome incubations were plotted as a percentage of the relevant zero time point control for each reaction. The in vivo CLint were extrapolated (ref: Naritomi Y, Terashita S, Kimura S, Suzuki A, Kagayama A, Sugiyama Y. Prediction of human hepatic clearance from in vivo animal experiments and in vitro metabolic studies with liver microsomes from animals and humans. Drug Metabolism and Disposition 2001, 29: 1316-1324).
# [3] = Pharmacokinetic profiles in rats after intravenous and oral administration; assay type: in vivo; conditions: for F: oral dose generally 5 or 10 mg/kg; for AUC(0-t) / half-life / Vd: rat, plasma; for Vd: read-out: Vss
# Procedure: The compounds disclosed herein are assessed in pharmacokinetic studies in mice, rats, dogs or monkeys. The compounds are administered as a water solution, 2% HPMC+1% TWEEN® 80 in water solution, 5% DMSO+5% solutol in saline, 4% MC suspension or capsule. For the intravenous administration, the animals are generally given at 1 or 2 mg/kg dose. For the oral (p.o.) dosing, mice and rats are generally given 5 or 10 mg/kg dose, and dogs and monkeys are generally given 10 mg/kg dose. The blood samples (0.3 mL) are drawn at 0.25, 0.5, 1.0, 2.0, 3.0, 4.0, 6.0, 8.0, 12 and 24 h time points or 0.083, 0.25, 0.5, 1.0, 2.0, 4.0, 6.0, 8.0 and 24 h time points and centrifuged at 3,000 or 4000 rpm for 2 to 10 min. The plasma solutions are collected, stored at −20° C. or −70° C. until analyzed by LC/MS/MS as described above.
# [4] = Compound stability in rat liver microsomes; assay type: in vitro ADME; conditions: for half-life at 5 μM / CLint scaled at 5 μM: pH 7.4; for half-life at 5 μM: read-out: Rat T1/2; for CLint scaled at 5 μM: rat liver microsomes, in vivo CLint extrapolated
# Procedure: as §2, §3, §4, §5, §6
# [5] = biological target: T2, PI3K p110α/p85α (h) (Homo sapiens, UniProt P42336); assay: PI3K p110α/p85α (h) non-radioactive HTRF assay; assay type: biochemical
# T2 construct: purchased Millipore UK Ltd (assay service)
# T2 sequence (P42336 whole entry): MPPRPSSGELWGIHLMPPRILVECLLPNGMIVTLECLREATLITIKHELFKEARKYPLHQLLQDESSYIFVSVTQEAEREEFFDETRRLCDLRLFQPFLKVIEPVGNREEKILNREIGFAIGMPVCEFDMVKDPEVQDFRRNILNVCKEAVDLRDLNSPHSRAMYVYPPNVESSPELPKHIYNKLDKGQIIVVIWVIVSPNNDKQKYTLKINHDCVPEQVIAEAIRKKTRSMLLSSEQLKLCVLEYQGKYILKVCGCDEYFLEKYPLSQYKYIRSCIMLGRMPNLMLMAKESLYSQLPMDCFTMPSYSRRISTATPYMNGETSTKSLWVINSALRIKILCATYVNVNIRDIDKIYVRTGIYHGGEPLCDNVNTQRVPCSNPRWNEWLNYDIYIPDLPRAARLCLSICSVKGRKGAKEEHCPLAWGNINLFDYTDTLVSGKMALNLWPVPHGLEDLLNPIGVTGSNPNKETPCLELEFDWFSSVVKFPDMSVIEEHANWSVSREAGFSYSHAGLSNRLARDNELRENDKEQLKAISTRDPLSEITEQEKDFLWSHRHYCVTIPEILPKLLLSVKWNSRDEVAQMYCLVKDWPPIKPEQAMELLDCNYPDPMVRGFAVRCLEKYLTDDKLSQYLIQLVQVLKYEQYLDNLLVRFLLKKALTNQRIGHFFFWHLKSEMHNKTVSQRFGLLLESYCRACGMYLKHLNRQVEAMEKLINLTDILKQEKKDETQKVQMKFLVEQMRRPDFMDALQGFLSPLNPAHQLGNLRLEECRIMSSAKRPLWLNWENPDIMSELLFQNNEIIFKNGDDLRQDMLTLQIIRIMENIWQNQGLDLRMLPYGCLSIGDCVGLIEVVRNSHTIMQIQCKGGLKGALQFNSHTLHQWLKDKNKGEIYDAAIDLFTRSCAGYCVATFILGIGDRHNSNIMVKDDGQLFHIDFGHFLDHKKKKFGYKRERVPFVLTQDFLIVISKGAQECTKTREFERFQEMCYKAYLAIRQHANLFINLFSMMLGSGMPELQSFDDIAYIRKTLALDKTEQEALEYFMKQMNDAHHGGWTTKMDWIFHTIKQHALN
# T2 sequence (P27986 whole entry partner): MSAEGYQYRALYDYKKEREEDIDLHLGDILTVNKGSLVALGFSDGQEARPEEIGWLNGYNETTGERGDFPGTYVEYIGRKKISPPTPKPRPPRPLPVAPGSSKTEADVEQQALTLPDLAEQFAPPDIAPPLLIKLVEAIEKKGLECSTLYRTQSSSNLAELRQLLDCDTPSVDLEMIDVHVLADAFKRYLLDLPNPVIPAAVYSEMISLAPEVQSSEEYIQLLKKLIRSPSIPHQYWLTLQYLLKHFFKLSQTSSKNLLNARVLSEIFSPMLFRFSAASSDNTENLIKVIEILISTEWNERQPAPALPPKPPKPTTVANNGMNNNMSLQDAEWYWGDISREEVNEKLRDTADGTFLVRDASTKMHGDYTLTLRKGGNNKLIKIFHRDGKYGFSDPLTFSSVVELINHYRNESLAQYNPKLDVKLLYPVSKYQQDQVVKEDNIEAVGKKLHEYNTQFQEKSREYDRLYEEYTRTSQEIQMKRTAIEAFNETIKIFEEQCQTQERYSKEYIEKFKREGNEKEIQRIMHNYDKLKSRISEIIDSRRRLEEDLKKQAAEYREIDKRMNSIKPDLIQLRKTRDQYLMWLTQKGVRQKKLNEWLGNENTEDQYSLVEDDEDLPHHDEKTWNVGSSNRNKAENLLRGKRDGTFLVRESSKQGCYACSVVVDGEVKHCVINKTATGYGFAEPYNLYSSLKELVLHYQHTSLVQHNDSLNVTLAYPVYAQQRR
# Procedure: (§7) PI3K p110α/p85α (h) is incubated in assay buffer containing 10 μM phosphatidylinositol 4,5-bisphosphate and MgATP (concentration as required). The reaction is initiated by the addition of the ATP solution. After incubation for 30 minutes at room temperature, the reaction is stopped by the addition of stop solution containing EDTA and biotinylated phosphatidylinositol-3,4,5-trisphosphate. Finally, detection buffer is added, which contains europium-labelled anti-GST monoclonal antibody, GST-tagged GRP1 PH domain and streptavidin allophycocyanin. The plate is then read in timeresolved fluorescence mode and the homogenous time-resolved fluorescence (HTRF) signal is determined according to the formula HTRF=10000×(Em665 nm/Em620 nm).
# as §1
# [6] = tested on: U87MG glioblastoma cells; assay: Tumor xenograft model (U87MG), tumor growth inhibition; assay type: in vivo, athymic nude mice; conditions: 14 days
# Procedure: The efficacy of compounds disclosed herein was evaluated in a standard murine model of tumorigenesis. Human tumor cells (U87MG glioblastoma cells from ATCC) were expended in culture, harvested, and injected subcutaneously onto the rear flank of 6-7 week old female athymic nude mice (BALB/cA nu/nu, Hunan SLAC Laboratory Animal, Co.) (n=6-10 for vehicle group and for each dosing group). When tumors reached a volume of 100-250 mm^3, animals were randomly divided into vehicle control (for example, 5% DMSO+70% Captisol® (30%), 7% HCl (pH1), 18% Captisol® (30%); or 7% DMSO, 7% HCl (pH1), 70% Captisol® (30%), 16% Captisol® (30%), or the like) and compound groups. Subsequent administration of compound by oral gavage begins anywhere from day 0 to day 15 post tumor cell challenge and generally continues with once a day for the duration of the experiment.
# Progression of tumor growth is assessed by tumor volumes and recorded as a function of time. The long (L) and short (W) axes of the subcutaneous tumors were measured with calipers twice weekly, and the tumor volume (TV) calculated as (L×W^2)/2). TGI was calculated from the difference between the median tumor volumes of vehicle-treated and drug-treated mice, expressed as a percentage of the median tumor volume of the vehicle-treated control group, by the following relation:
# Initial statistical analysis is done by repeated measures analysis of variance (RMANOVA), followed by Scheffe psot hoc testing for multiple comparisons. Vehicle alone (5% DMSO+70% Captisol® (30%), 7% HCl (pH1), 18% Captisol® (30%); or 7% DMSO, 7% HCl (pH1), 70% Captisol® (30%), 16% Captisol® (30%), or the like) is the negative control.
# [7] = biological target: T3, PI3K p110β/p85α (h) (Homo sapiens, UniProt P42338); assay: PI3K p110β/p85α (h) non-radioactive HTRF assay; assay type: biochemical
# T3 construct: purchased Millipore UK Ltd (assay service)
# T3 sequence (P42338 whole entry): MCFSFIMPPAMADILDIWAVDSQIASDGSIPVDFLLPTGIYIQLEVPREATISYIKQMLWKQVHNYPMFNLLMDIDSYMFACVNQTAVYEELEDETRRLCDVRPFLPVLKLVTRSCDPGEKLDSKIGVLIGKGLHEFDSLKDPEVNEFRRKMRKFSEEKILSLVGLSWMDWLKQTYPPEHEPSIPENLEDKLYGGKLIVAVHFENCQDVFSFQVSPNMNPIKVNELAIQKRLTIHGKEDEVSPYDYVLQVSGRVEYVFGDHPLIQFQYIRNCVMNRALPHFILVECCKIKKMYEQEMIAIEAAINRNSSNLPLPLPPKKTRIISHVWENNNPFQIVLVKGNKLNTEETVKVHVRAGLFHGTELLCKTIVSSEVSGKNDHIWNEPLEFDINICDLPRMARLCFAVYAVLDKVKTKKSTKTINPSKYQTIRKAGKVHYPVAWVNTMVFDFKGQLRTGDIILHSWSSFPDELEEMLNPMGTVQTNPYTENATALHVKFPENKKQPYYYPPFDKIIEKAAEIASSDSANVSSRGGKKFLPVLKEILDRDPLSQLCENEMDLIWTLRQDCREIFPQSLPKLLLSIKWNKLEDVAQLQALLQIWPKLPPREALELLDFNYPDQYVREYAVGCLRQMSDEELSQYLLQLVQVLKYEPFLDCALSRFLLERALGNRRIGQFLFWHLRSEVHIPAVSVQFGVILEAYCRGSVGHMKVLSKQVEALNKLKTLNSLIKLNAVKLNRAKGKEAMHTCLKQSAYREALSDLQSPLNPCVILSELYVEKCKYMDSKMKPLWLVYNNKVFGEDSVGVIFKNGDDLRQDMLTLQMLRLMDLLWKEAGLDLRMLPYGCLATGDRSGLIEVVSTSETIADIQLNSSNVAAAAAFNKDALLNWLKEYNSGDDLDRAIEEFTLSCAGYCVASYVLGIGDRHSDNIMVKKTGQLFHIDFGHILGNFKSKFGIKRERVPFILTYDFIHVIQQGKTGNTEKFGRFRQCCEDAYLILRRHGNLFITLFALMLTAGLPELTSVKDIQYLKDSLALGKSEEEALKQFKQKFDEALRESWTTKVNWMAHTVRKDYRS
# T3 sequence (P27986 whole entry partner): as the sequence (P27986 whole entry partner) above
# Procedure: as §7, with “(p110β/p85α)” for “p110α/p85α”, “phosphatidylinositol-4,5-bisphosphate” for “phosphatidylinositol 4,5-bisphosphate”, “MgATP mix.” for “ATP solution.”, “streptavidin-allophycocyanin.” for “streptavidin allophycocyanin.”
# as §1
# [8] = biological target: T4, PI3K (p110δ/p85α) (h) (Homo sapiens, UniProt O00329); assay: PI3K p110δ/p85α (h) non-radioactive HTRF assay; assay type: biochemical
# T4 construct: purchased Millipore UK Ltd (assay service)
# T4 sequence (O00329 whole entry): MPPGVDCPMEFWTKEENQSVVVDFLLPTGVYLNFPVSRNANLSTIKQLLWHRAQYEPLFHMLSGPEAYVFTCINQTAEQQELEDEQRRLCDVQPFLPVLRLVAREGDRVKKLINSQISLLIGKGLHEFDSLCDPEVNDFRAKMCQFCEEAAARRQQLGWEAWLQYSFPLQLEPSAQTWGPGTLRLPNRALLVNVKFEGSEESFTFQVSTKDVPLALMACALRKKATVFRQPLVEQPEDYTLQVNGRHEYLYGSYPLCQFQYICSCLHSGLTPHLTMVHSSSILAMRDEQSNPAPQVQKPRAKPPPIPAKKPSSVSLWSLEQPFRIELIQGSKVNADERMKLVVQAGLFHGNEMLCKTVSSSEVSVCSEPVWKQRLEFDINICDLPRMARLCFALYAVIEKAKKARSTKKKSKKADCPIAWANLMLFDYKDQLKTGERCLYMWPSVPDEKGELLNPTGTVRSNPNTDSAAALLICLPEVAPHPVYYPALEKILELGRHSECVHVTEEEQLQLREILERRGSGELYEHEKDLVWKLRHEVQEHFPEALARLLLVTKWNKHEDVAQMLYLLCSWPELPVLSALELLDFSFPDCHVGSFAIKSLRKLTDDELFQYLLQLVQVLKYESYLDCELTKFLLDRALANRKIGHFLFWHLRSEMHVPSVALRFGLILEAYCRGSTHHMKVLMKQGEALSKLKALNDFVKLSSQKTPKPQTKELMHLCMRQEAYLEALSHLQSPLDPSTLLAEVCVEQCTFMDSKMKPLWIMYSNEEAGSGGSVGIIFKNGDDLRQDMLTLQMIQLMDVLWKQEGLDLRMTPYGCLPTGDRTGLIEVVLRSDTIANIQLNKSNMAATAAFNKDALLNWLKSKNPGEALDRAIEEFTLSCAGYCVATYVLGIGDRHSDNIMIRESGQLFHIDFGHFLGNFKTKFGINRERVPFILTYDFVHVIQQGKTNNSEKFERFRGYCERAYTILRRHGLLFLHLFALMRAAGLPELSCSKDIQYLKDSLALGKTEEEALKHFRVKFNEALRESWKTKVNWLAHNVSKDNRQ
# T4 sequence (P27986 whole entry partner): as the sequence (P27986 whole entry partner) above
# Procedure: as §7, with “(p110δ/p85α)” for “p110α/p85α”, “phosphatidylinositol-4,5-bisphosphate” for “phosphatidylinositol 4,5-bisphosphate”, “MgATP mix.” for “ATP solution.”, “streptavidin-allophycocyanin.” for “streptavidin allophycocyanin.”
# as §1
# [9] = rat liver microsomes 0.5 mg protein/mL, compound 5 μM, NADPH 1.0 mM, 37° C.
SMILES,IC50 [1],half-life at 5 μM [2],CLint scaled at 5 μM [2],F ([3]; iv dose 1 mg/kg),Cl/F ([3]; iv dosing 1 mg/kg),AUC(0-t) ([3]; iv dosing 1 mg/kg),half-life ([3]; iv dosing 1 mg/kg),Vd ([3]; iv dosing 1 mg/kg),"half-life at 5 μM [4, 9]",CLint scaled at 5 μM [4],IC50 [5],F ([3]; iv dose 2 mg/kg),Cl/F ([3]; iv dosing 2 mg/kg),AUC(0-t) ([3]; iv dosing 2 mg/kg),half-life ([3]; iv dosing 2 mg/kg),Vd ([3]; iv dosing 2 mg/kg),IC50 [7],IC50 [8],also measured
"C#Cc1cnc2ccc(-c3cnc(OC)c(NS(=O)(=O)c4ccc(F)cc4)c3)nn12 [Ex. 1, N-(5-(3-ethynylimidazo[1,2-b]pyridazin-6-yl)-2-methoxypyridin-3-yl)-4-fluorobenzenesulfonamide]",23 nM,162 min,10.8 mL/min/kg,96.0%,0.14 L/h/kg,6540 ng·h/mL,383 min,1 L/kg,97.4 min,25.5 mL/min/kg,14 nM,–,–,–,–,–,–,–,–
"COc1ncc(-c2ccc3ncc(C#CCO)n3n2)cc1NS(=O)(=O)c1ccc(F)cc1 [Ex. 2, 4-fluoro-N-(5-(3-(3-hydroxyprop-1-yn-1-yl)imidazo[1,2-b]pyridazin-6-yl)-2-methoxypyridin-3-yl)benzenesulfonamide]",29 nM,–,–,–,–,–,–,–,–,–,6 nM,56.1%,0.10 L/h/kg,20700 ng·h/mL,205 min,0.22 L/kg,–,–,TGI % U87MG ([6]; 1 mg/kg oral gavage): 6%; TGI % U87MG ([6]; 3 mg/kg oral gavage): 21%; TGI % U87MG ([6]; 10 mg/kg oral gavage): 35%
"COc1ncc(-c2ccc3ncc(C#CC(C)O)n3n2)cc1NS(=O)(=O)c1ccc(F)cc1 (stereo not shown) [Ex. 3, 4-fluoro N (5 (3 (3 hydroxybut-1-yn-1-yl)imidazo[1,2-b]pyridazin-6-yl)-2-methoxypyridin-3-yl)benzenesulfonamide]",16 nM,144 min,12.1 mL/min/kg,–,–,–,–,–,50.6 min,49.1 mL/min/kg,12 nM,61.5%,0.07 L/h/kg,29000 ng·h/mL,187 min,0.16 L/kg,–,–,–
"C#Cc1cnc2ccc(-c3cnc(OC)c(NS(=O)(=O)c4ccc(F)cc4F)c3)nn12 [Ex. 8, N-(5-(3-ethynylimidazo[1,2-b]pyridazin-6-yl)-2-methoxypyridin-3-yl)-2,4-difluorobenzenesulfonamide]",12 nM,243 min,7.17 mL/min/kg,–,–,–,–,–,74.9 min,33.2 mL/min/kg,6 nM,115.1%,0.13 L/h/kg,16600 ng·h/mL,181 min,0.37 L/kg,–,–,–
"CC#Cc1cnc2ccc(-c3cnc(OC)c(NS(=O)(=O)c4ccc(F)cc4F)c3)cn12 [Ex. 18, 2,4-difluoro-N-(2-methoxy-5-(3-(prop-1-yn-1-yl)imidazo[1,2-a]pyridin-6-yl)pyridin-3-yl)benzenesulfonamide]",–,212 min,8.18 mL/min/kg,97.16%,0.10 L/h/kg,10300 ng·h/mL,140 min,0.35 L/kg,43.9 min,56.6 mL/min/kg,–,–,–,–,–,–,28 nM,2 nM,–
"COc1ncc(-c2ccc3ncc(C#N)n3c2)cc1NS(=O)(=O)c1ccc(F)cc1F [Ex. 19, N-(5-(3-cyanoimidazo[1,2-a]pyridin-6-yl)-2-methoxypyridin-3-yl)-2,4-difluorobenzenesulfonamide]",–,424 min,4.1 mL/min/kg,–,–,–,–,–,–,–,–,54.66%,0.23 L/h/kg,10100 ng·h/mL,155 min,0.55 L/kg,28 nM,4 nM,"Rat T1/2 [4, 9]: ∞"

# From patent publication US9926324B2, “Heteroaromatic compounds as PI3 kinase modulators and methods of use” (Calitor Sciences, LLC, priority 2012, dated 2018)
